“Also recorded” adds a separate entry of the source.

One data set concerns TNF-α and IL-6. The data set is described as follows: CpG-ODN-induced systemic production of TNF-α and IL-6 in vivo, serum ELISA (Example 4). Also on record: species or system Mice C57Bl/6. Conditions: for production of IL-6 in serum after injection / production of TNF-α in serum after injection: one hour after injection into hind footpads, ELISA. How it is done: Mice were injected into each hind footpad with a total volume of 100 μl (50 μl per footpad), containing the above mentioned compounds. One hour after injection blood was taken from the tail-vein and serum was prepared. The amount of the pro-inflammatory cytokines TNF-α and IL-6 in the sera was determined by cytokine-specific ELISAs according to the manufacturer's instructions (R&D Systems, Inc., Minneapolis, Minn.).

Data set [1] has as its system human monocyte-derived DC. The data set is described as follows: Poly I:C-induced production of pro-inflammatory cytokines by human DC in vitro (Example 6). In kind it is cell-based. Conditions: for production of IL-6 by human DC / production of TNF-α by human DC / production of IL-12/p70 by human DC: substance alone, 10 μg/ml, supernatant ELISA; for poly I:C-induced production of pro-inflammatory cytokines by human DC: poly I:C and pR60 together, in vitro. How it is done:
Human DC were generated from monocytes.
To determine, which cytokines are induced/produced by DC upon poly I:C and/or pR stimulation, DC were incubated with different stimuli for 12 and 24 hours, supernatants were harvested, stored at −20° C. and screened for the presence of respective cytokines by specific ELISAs.
(In general: An ELISA detects its analyte on a solid surface through an enzyme-linked reagent.)

The subject of another data set is human dendritic cells. Put plainly: LPS-induced production of pro-inflammatory cytokines by human dendritic cells in vitro (Example 10). Conditions: for LPS-induced production of pro-inflammatory cytokines by human dendritic cells: in vitro, mode of incubation not specified; for production of IL-6 by human dendritic cells / production of TNF-a by human dendritic cells: substance alone (LPS 5 ng/ml; pR60 10 μg/ml; KLK 16, 8 μg/ml; pK 10 μg/ml), culture medium 12 h then substance 12 h.

Data set [2] concerns CD11c+ sorted BM-DC. The data set is described as follows: CpG-ODN-induced production of TNF-α and IL-6 by murine BM-DC in vitro, KLK (Example 7). The format is cell-based, C57B1/6 mice. Conditions: 24 h. How it is done:
(§1) Murine dendritic cells (DC) were generated from bone-marrow precursor cells of C57Bl/6 mice as previously described (Inaba 1992). Briefly, bone marrow cells were obtained by flushing the femurs and tibias with medium. Cells were depleted of lymphocytes, granulocytes and MHC class II^+cells by Ab-complement-mediated lysis. Dead cells were removed by Ficoll gradient (Ficoll Separating Solution, density […]; Biochrom KG, Germany). The remaining cells (1×10^6/ml) were cultured in 24-well culture plates in high glucose DMEM medium (PAA Laboratories GmbH, Linz, Austria; E 15-009) supplemented with 10% heat-inactivated FCS, 10. mM sodium pyruvate, 2 mM L-glutamine, […] gentamicin, 0.5 mM 2-mercaptoethanol (all supplements from PAA Laboratories GmbH, Linz, Austria), 20 ng/ml GM-CSF and 250 U/ml IL-4. On day 3 of culture, cells were fed with fresh medium. On day 6 of culture, non-adherent cells and loosely adherent aggregates were harvested, washed and re-plated in 6-well culture plates (2×10^6/5 ml). After additional 1 day of culture, non-adherent cells were collected for analyses. […] For in vitro-stimulations, day 7-cultured bone marrow cells were further enriched for CD11c^+ cells (=DC) using magnetic beads (Miltenyi, Bergisch-Gladbach, Germany). The purity of BM-DC was more than 95% as determined by flow cytometry analyses. […] Supernatants were harvested after 24 h and analysed for the production of TNF-α and IL-6 using specific ELISAs.
Murine dendritic cells (DC) were generated from bone-marrow precursor cells of C57B1/6 mice as described in example 5.

Data set [3] relates to murine bone-marrow-derived dendritic cells. The data set is described as follows: LPS-induced production of pro-inflammatory cytokines by murine bone-marrow-derived dendritic cells in vitro (Example 9). In kind it is cell-based, C57Bl/6 mice. The method, then:
Murine dendritic cells (DC) were generated from bone-marrow precursor cells of C57Bl/6 mice as previously described (Inaba 1992). Briefly, bone marrow cells were obtained by flushing the femurs and tibias with medium. Cells were depleted of lymphocytes, granulocytes and MHC class II^+cells by Ab-complement-mediated lysis. Dead cells were removed by Ficoll gradient (Ficoll Separating Solution, density […]; Biochrom KG, Germany). The remaining cells (1×10^6/ml) were cultured in 24-well culture plates in high glucose DMEM medium (PAA Laboratories GmbH, Linz, Austria; E 15-009) supplemented with 10% heat-inactivated FCS, 10. mM sodium pyruvate, 2 mM L-glutamine, […] gentamicin, 0.5 mM 2-mercaptoethanol (all supplements from PAA Laboratories GmbH, Linz, Austria), 20 ng/ml GM-CSF and 250 U/ml IL-4. On day 3 of culture, cells were fed with fresh medium. On day 6 of culture, non-adherent cells and loosely adherent aggregates were harvested, washed and re-plated in 6-well culture plates (2×10^6/5 ml). After additional 1 day of culture, non-adherent cells were collected for analyses. […] For in vitro-stimulations, day 7-cultured bone marrow cells were further enriched for CD11c^+ cells (=DC) using magnetic beads (Miltenyi, Bergisch-Gladbach, Germany). The purity of BM-DC was more than 95% as determined by flow cytometry analyses.
Murine dendritic cells (DC) were generated from bone-marrow precursor cells of C57Bl/6 mice as described in example 5.

Data set [4] has as its system CD11c+ sorted BM-DC. The data set is described as follows: CpG-ODN-induced production of TNF-α and IL-6 by murine BM-DC in vitro, poly-L-arginine (Example 5). In kind it is cell-based, C57Bl/6 mice. Conditions: 24 h. The method, then: as §1
Another data set relates to TNF-a and IL-6. Put plainly: BCG/CpG-ODN-induced systemic production of TNF-a and IL-6 in vivo, serum ELISA (Example 8). Set-up: species or system Mice C57Bl/6. Conditions: BCG vaccine and CpG-ODN co-injected with poly-L-arginine; serum one hour after injection. How it is done:
Mice were injected subcutaneously into the flank with a total volume of 100 μl, containing the above mentioned compounds. One hour after injection blood was taken from the tail-vein and serum was prepared. The amount of the pro-inflammatory cytokines TNF-a and IL-6 in the sera was determined by cytokine-specific ELISAs according to the manufacturer's instructions (R&D Systems, Inc., Minneapolis, Minn.).

[5] abbreviates: cells pre-incubated with polycationic compound 12 h, then LPS 12 h.
Where [6] appears, read: mixture of LPS and polycationic compound, 12 h.
Where [7] appears, read: mixture of CpG-ODN 1668 (0.5 nmol/ml) and KLK (16, 8 μg/ml).
The mark [8] stands for this setting: substance alone (KLK 16, 8 μg/ml; CpG-ODN 1668 0.5 nmol/ml), supernatant ELISA.
The mark [9] stands for this setting: cells pre-incubated with poly-L-arginine 12 h, then LPS 12 h.
[10] abbreviates: mixture of LPS/poly-L-arginine, 12 h.
Where [11] appears, read: substance alone (LPS 10 ng/ml; pR60 10 μg/ml), culture medium 12 h then substance 12 h.
Setting [12] is: mixture of CpG-ODN 1668 (1 nmol/ml) and poly-L-arginine (10 μg/ml).
Where [13] appears, read: substance alone (poly-L-arginine 10 μg/ml; CpG-ODN 1668 1 nmol/ml), supernatant ELISA.
Setting [14] is: poly-L-arginine co-injected with OVA257-264-peptide and CpG-ODN, serum one hour after injection.
The mark [15] stands for this setting: mixture of pIC (10 μg/ml) and pR (10 μg/ml), 12 and 24 hours.

Protocol for human dendritic cells: Human DC were generated from monocytes. Briefly, peripheral blood leukocytes (PBLs) were isolated from buffy coats of healthy volunteers by Ficoll gradient centrifugation. Monocytes were isolated from PBLs using CD14-coated magnetic beads (Miltenyi Biotec Inc., Germany) applied according to the manufacturer's instructions. Using this method, we obtained >95% CD14^+ cells as determined by flow cytometry. These CD14^+ monocytes were cultured in RPMI 1640 medium supplemented with 10% FCS (PAA Laboratories, Linz, Austria), non-essential aminoacids, L-glutamin, gentamicin, sodium pyruvate, 100 ng/ml human GM-CSF and 500 U/ml human IL-4 in 6-well tissue plates for 6-7 days. To this end, the cultures contained >80%. MHC class II^+/CD1a^+ cells (=DC).
Human dendritic cells (DC) were generated as described in example 6. For in vitro-stimulations, day 7-cultured dendritic cells were incubated for 12 h with the indicated compounds. After centrifugation, supernatant was removed, cells were washed once with medium, then fresh medium with the indicated compounds was added, and the cells were incubated for additional 12 h. Supernatants were harvested and analyzed for the production of TNF-a and IL-6 using specific ELISAs.

For the compound `CC[C@H](C)[C@H](NC(=O)[C@@H](NC(=O)[C@@H](N)CO)[C@@H](C)CC)C(=O)N[C@@H](CC(N)=O)C(=O)N[C@@H](Cc1ccccc1)C(=O)N[C@@H](CCC(=O)O)C(=O)N[C@@H](CCCCN)C(=O)N[C@@H](CC(C)C)C(=O)O` [OVA257-264, reference compound], in the data set with TNF-α and IL-6, the “production of IL-6 in serum after injection” value is on record as “does not-induce the production of detectable amounts” and the “production of TNF-α in serum after injection” value is on record as “does not-induce the production of detectable amounts”. In the data set with TNF-α and IL-6 (listed as OVA257-264-peptide), the “production of IL-6 in serum after injection” value is on record as “neither the injection of OVA257-264-peptide alone nor in combination with poly-L-arginine led to the induction of significant amounts” and the “production of TNF-α in serum after injection” value is on record as “neither the injection of OVA257-264-peptide alone nor in combination with poly-L-arginine led to the induction of significant amounts”.

With “Polyinosinic-polycytidylic acid [poly I:C, reference compound]”, in data set [1] (12 and 24 hours), the “production of IL-6 by human DC” value was “triggers the production” and the “production of TNF-α by human DC” value is “triggers the production”. Besides, in data set [1], the “production of IL-12/p70 by human DC” value was “produced IL-12/p70”.

Consider Poly-D-lysine Hydrobromide, for which, in the data set with human dendritic cells (setting [5]), the “LPS-induced production of IL-6 by human dendritic cells” value is “inhibited” and the “LPS-induced production of TNF-a by human dendritic cells” value is given as “inhibited”. In addition, in the data set on human dendritic cells, the “LPS-induced production of pro-inflammatory cytokines by human dendritic cells” value is “decrease”, the “production of IL-6 by human dendritic cells” value is reported as “could not detect any” and the “production of TNF-a by human dendritic cells” value is “could not detect any”. In the data set on human dendritic cells (setting [6]), the “LPS-induced production of IL-6 by human dendritic cells” value is listed as “inhibited” and the “LPS-induced production of TNF-a by human dendritic cells” value is “inhibited”.

With KLKLLLLLKLK, in the data set on CD11c+ sorted BM-DC [2] (setting [7]), the “CpG-ODN 1668-induced production of IL-6 by murine BM-DC” value is “inhibited; also recorded: abrogates” and the “CpG-ODN 1668-induced production of TNF-a by murine BM-DC” value is recorded as “inhibited; also recorded: abrogates”. In the data set with CD11c+ sorted BM-DC [2] (setting [8]), the “production of IL-6 by murine BM-DC” value is “could not detect any” and the “production of TNF-a by murine BM-DC” value is “could not detect any”. In addition, in the data set with human dendritic cells (setting [5]), the “LPS-induced production of IL-6 by human dendritic cells” value is recorded as “inhibited” and the “LPS-induced production of TNF-a by human dendritic cells” value is listed as “inhibited”. In the data set on human dendritic cells, the “LPS-induced production of pro-inflammatory cytokines by human dendritic cells” value is “decrease”, the “production of IL-6 by human dendritic cells” value was “could not detect any” and the “production of TNF-a by human dendritic cells” value was “could not detect any”. In addition, in the data set on human dendritic cells (setting [6]), the “LPS-induced production of IL-6 by human dendritic cells” value is given as “inhibited” and the “LPS-induced production of TNF-a by human dendritic cells” value is recorded as “inhibited”.

Turning to Poly-L-Arginine, in data set [3] (setting [9]), the “LPS-induced production of IL-6 by murine BM-DC” value is given as “inhibited” and the “LPS-induced production of TNF-a by murine BM-DC” value is “inhibited”. Moreover, the “LPS-induced production of pro-inflammatory cytokines by murine bone-marrow-derived dendritic cells” value in data set [3] (in vitro, mode of incubation not specified) is “decrease”. In data set [3] (setting [10]), the “LPS-induced production of IL-6 by murine BM-DC” value is given as “inhibited” and the “LPS-induced production of TNF-a by murine BM-DC” value was “inhibited”. Further, in data set [3] (setting [11]), the “production of IL-6 by murine BM-DC” value is listed as “could not detect any” and the “production of TNF-a by murine BM-DC” value was “could not detect any”. In the data set on CD11c+ sorted BM-DC [4] (setting [12]), the “CpG-ODN 1668-induced production of IL-6 by murine BM-DC” value is given as “inhibited; also recorded: abrogates” and the “CpG-ODN 1668-induced production of TNF-α by murine BM-DC” value is “inhibited; also recorded: abrogates”. Further, in the data set on CD11c+ sorted BM-DC [4] (setting [13]), the “production of IL-6 by murine BM-DC” value was “could not detect any; also recorded: neither TNF-α nor IL-6 were detectable” and the “production of TNF-α by murine BM-DC” value is on record as “could not detect any; also recorded: neither TNF-α nor IL-6 were detectable”. In the data set on human dendritic cells (setting [5]), the “LPS-induced production of IL-6 by human dendritic cells” value was “inhibited” and the “LPS-induced production of TNF-a by human dendritic cells” value is reported as “inhibited”. In addition, in the data set on human dendritic cells, the “LPS-induced production of pro-inflammatory cytokines by human dendritic cells” value was “decrease”, the “production of IL-6 by human dendritic cells” value is “could not detect any” and the “production of TNF-a by human dendritic cells” value is listed as “could not detect any”. For the same compound, in the data set on human dendritic cells (setting [6]), the “LPS-induced production of IL-6 by human dendritic cells” value was “inhibited” and the “LPS-induced production of TNF-a by human dendritic cells” value was “inhibited”. Also, in the data set with TNF-α and IL-6 (setting [14]), the “CpG-ODN-induced systemic production of IL-6” value is reported as “inhibited; also recorded: prevents; also recorded: totally abolished” and the “CpG-ODN-induced systemic production of TNF-α” value was “inhibited; also recorded: prevents; also recorded: totally abolished”. In addition, in the data set on TNF-a and IL-6, the “BCG/CpG-ODN-induced systemic production of IL-6” value is listed as “inhibited; also recorded: prevents” and the “BCG/CpG-ODN-induced systemic production of TNF-a” value is reported as “inhibited; also recorded: prevents”. Besides, in data set [1] (setting [15]), the “poly I:C-induced IL-6 production by human DC” value is listed as “inhibited” and the “poly I:C-induced TNF-α production by human DC” value is “inhibited”. In data set [1], the “poly I:C-induced production of pro-inflammatory cytokines by human DC” value was “abrogates; also recorded: inhibits” and the “production of IL-12/p70 by human DC” value is “could not detect any”. The “poly I:C-induced production of pro-inflammatory cytokines by human DC” value in data set [1] (listed as pR) was “can be inhibited”. In addition, in data set [1] (12 and 24 hours), the “production of IL-6 by human DC” value is reported as “could not detect any” and the “production of TNF-α by human DC” value is “could not detect any”.
